Patent US20240092741A1, “COMPOSITION FOR PREVENTION OR TREATMENT OF NEUROFIBROMATOSIS TYPE 2 SYNDROME” (PRG S&TECH INC., priority 2021, published 2024)

Legend:
HEI-193 cells [1] = test: MTT cell viability assay in HEI-193 cells; assay type: cell-based, human; settings: indicated concentrations, 7 days (FIG. 5A)
Protocol: (§1) To measure cell viability, MTT (3-(4,5-dimethylthiazol-2-yl)-2,5-diphenyltetrazolium bromide) assay was used. In other words, the cells were seeded in 96-well plates and treated with the indicated chemicals for a predetermined time. After removing the medium, 200 μl of MTT solution (0.5 mg/ml) dissolved in PBS was added to each well. Plates were then cultured at 37° C. for 4 hours, the MTT solution was removed, the precipitated substances were dissolved using a solution (DMSO:ethanol=1:1), and an amount of formazan dye produced was quantified by measuring the absorbance at 560 nm using an ELISA microplate reader (Thermo Fisher Scientific, MA, USA).

normal fibroblasts = test: MTT cell viability assay in normal fibroblasts; assay type: cell-based, human; settings: indicated concentrations, 7 days (FIG. 5A)
Protocol: as §1

Erk = Erk activation by Western blotting in HEI-193 cells; assay type: cell-based, human; settings: 24 h (FIG. 6A)
Protocol: (§2) Cells were harvested and lysed using RIPA buffer [50 mM Tris-Cl, pH 7.5, 150 mM NaCl, 1% NP-40, 0.1% SDS, and 10% sodium deoxycholate] to examine cellular signaling. Protein concentrations in samples were measured using Bio-Rad (Hercules, CA, USA) protein assay kits and BSA standards. The samples (20 μg protein per lane) were separated by sodium dodecyl sulfate-polyacrylamide gel electrophoresis (SDS-PAGE), transferred to Immobilon-P^SQ transfer membranes (Millipore Corp., MA, USA), which were then cultured with 3% skim milk-containing TBS-T buffer (Tris-HCl-based buffer containing 20 mM Tris pH 7.6, 150 mM NaCl, and 0.05% Tween 20) for 1 hour at room temperature and then reacted with primary antibody in TBS-T overnight at 4° C. The membranes were then washed and reacted with secondary horseradish peroxidase (HRP)-conjugated antibodies [goat anti-mouse, goat anti-rabbit, and mouse anti-goat antibodies (Pierce, Thermo Fisher Scientific, Inc., Rockford, IL, USA)] in TBS-T at room temperature for 2 hours. The blots were detected using an HRP-conjugated secondary antibody using ECL kit (Intron, Seoul, Korea).

TGF-β signaling = test: Smad2/3 phosphorylation after TGF-β1 in HEI-193 cells; assay type: cell-based, human; settings: 10 μM, TGF-β1 1 ng/ml (FIGS. 16A, 16B)
Protocol: as §2

[2] = tested on: NF2-transfected mouse schwannoma cells; test: MTT and immunoblotting in NF2-transfected mouse schwannoma cells; assay type: cell-based; settings: NF2-transfected mouse schwannoma cells (FIGS. 9C, 9D)
Protocol: In other words, cells were seeded at a density of 2×10^5 cells/well in 12-well plates and cultured overnight before transfection. The vector (1.5 μg) was mixed with 1.5 μl of Jetpei reagent dissolved in 150 mM NaCl solution. The mixture was reacted at room temperature for 15 minutes, and then added to the cells. After 3 hours, the serum-free medium 15 was replaced with medium supplemented with 10% FBS. Cells were harvested and lysed using RIPA buffer [50 mM Tris-Cl, pH 7.5, 150 mM NaCl, 1% NP-40, 0.1% SDS, and 10% sodium deoxycholate] to examine cellular signaling. Protein concentrations in samples were measured using Bio-Rad (Hercules, CA, USA) protein assay kits and BSA standards. […] The blots were detected using an HRP-conjugated secondary antibody using ECL kit (Intron, Seoul, Korea). […] Plates were then cultured at 37° C. for 4 hours, the MTT solution was removed, the precipitated substances were dissolved using a solution (DMSO:ethanol=1:1), and an amount of formazan dye produced was quantified by measuring the absorbance at 560 nm using an ELISA microplate reader (Thermo Fisher Scientific, MA, USA).

HEI-193 cells [3] = test: Western blotting of marker proteins in HEI-193 cells; assay type: cell-based, human; settings: HEI-193 cells
Protocol: as §2

SOX2 = SOX2 localization by IF and cell fractionation in HEI-193 cells; assay type: cell-based, human; settings: 2 μM, 24 h, IF and cell fractionation (FIGS. 15C, 15D)
Protocol: Cells were seeded on cover glass, washed with PBS, fixed with 4% paraformaldehyde (PFA) for 30 minutes at room temperature, and then permeabilized with 0.2% Triton X-100 at room temperature for 5 minutes. After treatment with blocking buffer [3% goat serum diluted in PBS] for 1 hour, cells were reacted with the specified antibody in the blocking buffer overnight at 4° C. Finally, the cells were reacted with secondary antibodies conjugated with FITC or rhodamine at 4° C. for 7 hours. The nuclei were stained with DAPI at room temperature for 10 minutes. After the cells were washed 3 times with PBS, the cover glass was mounted with a mounting solution (H-5501, Vector Laboratories, Cambridgeshire, UK) and immunofluorescence signals were detected using a fluorescence microscopy (Zeiss, Jena, Germany).

mouse schwannoma cells = test: Allograft tumor growth assay; assay type: in vivo
Protocol: For allograft, 1×10^7 mouse schwannoma cells were seeded subcutaneously on FVB/NJ mice (8 weeks old). Tumor-bearing mice were administered with the carrier (n=8) or PRG-N-01 (20 mg/kg; n=8) by intraperitoneal injection for 5 weeks (3 times per week). Every week, the tumor volume and body weight were measured. After termination of the experiment in each group, mice were dissected, and tumor tissues were isolated.
To examine the in vivo effect of PRG-N-01, NF2 model mouse-derived schwannoma cells were allografted to 8-week-old mice, and PRG-N-01 was administered by intraperitoneal injection (20 mg/kg, 3 times a week).

[4] = High-dose toxicity in normal mice (body weight); assay type: in vivo
[5] = isolated allograft tumors, RT-PCR (FIG. 17E)

With `CCN(CC)CCOc1ccc(-c2nnn(Cc3ccc(OC)cc3)c2N)cc1` [PRG-N-01, 4-(4-(2-(diethylamino)ethoxy)phenyl)-1-(4-methoxybenzyl)-1H-1,2,3-triazol-5-amino] the “antiproliferative effect in NF2 cells (MTT)” value (HEI-193 cells [1]) was “obvious antiproliferative effect”, the “toxicity in normal fibroblasts (MTT)” value (normal fibroblasts) was “without causing toxicity” and the Erk activation (Erk) was “inhibited Erk activation”. The “duration of Smad 2/3 phosphorylation (canonical TGF-β signaling)” value (TGF-β signaling) was “prolonged”, the “chemical effect (antiproliferating effect, RKIP induction, p-Erk suppression)” value [2] was “no chemical effect” and the “expression of other stem cell factors (c-Myc, Nanog, Oct4)” value (HEI-193 cells [3]; 4 days, Western blot (FIG. 14A)) was “not altered”. For the same molecule, the “expression of SOX2 (stem cell marker) at the protein level” value (HEI-193 cells [3]; Western blot (FIG. 12E)) was “reduced”, the “localization of nuclear SOX2” value (SOX2) was “moved to the cytosol” and the “SOX2 mRNA in tumor tissues” value (mouse schwannoma cells; [5]) was “reduction”. The “schwann cell markers and SOX10 mRNA in tumor tissues” value (mouse schwannoma cells; [5]) was “induction”, the “RKIP, schwann cell markers (PLP, MBP, MPZ) and SOX10 at the protein level in tumor tissues” value (mouse schwannoma cells; isolated allograft tumors, immunoblotting (FIG. 17D)) was “induction” and the tumor growth (mouse schwannoma cells; mouse schwannoma allograft in FVB/NJ mice, 20 mg/kg i.p., 3 times a week, 5 weeks) was “inhibited tumor growth”. For the same molecule, the “tumor size and weight” value (mouse schwannoma cells; mouse schwannoma allograft, 20 mg/kg i.p., 3 times a week, 5 weeks (FIGS. 17B, 17C)) was “obviously suppressed”, the body weight ([4]; 200 mg/kg intraperitoneally (FIG. 18B)) was “did not change the body weight” and the toxicity ([4]; 200 mg/kg, 10 times the therapeutic dose) was “did not cause severe toxicity”.
